From patent publication US20220323406A1, “METHODS AND COMPOSITIONS FOR DIFFERENTIATING STEM CELLS” (Massachusetts Institute of Technology, priority 2019, published 2022)

Assays:
[1] = test system: ENR+CD organoids (ISC to Paneth cell differentiation); experiment: Primary screen: basal (non-stimulated) lysozyme secretion LYZ.NS, 2.5-D 384-well ENR+CD organoid differentiation; format: cell-based, mouse
Text: (§1) High-throughput screening.

ENR+CD organoids = experiment: Primary screen: ATP (CellTiter-Glo 3D, CTG) cell number/viability, 2.5-D 384-well ENR+CD organoids; conditions: primary screen; for Z.CTG: standard z score;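 on all read-outs here: compounds given at plating and again on day 3 over a 6-day differentiation from ENR+CV stem-cell-enriched precursors, ATP measured on day 6, plate median as control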
[2] = test system: ENR+CD organoids (ISC to Paneth cell differentiation); experiment: Primary screen: CCh-stimulated lysozyme secretion LYZ.S, 2.5-D 384-well ENR+CD organoid differentiation; format: cell-based, mouse; conditions: primary screen
Text: as §1

[3] = primary screen, standard z score, dose 0.08 uM
[4] = primary screen, standard z score, dose 0.40 uM
[5] = primary screen, standard z score, dose 2.00 uM
[6] = primary screen, standard z score, dose 10.00 uM
[7] = primary screen, dose 0.08 uM, standard z score
[8] = primary screen, dose 0.40 uM, standard z score
[9] = primary screen, dose 2.00 uM, standard z score
[10] = primary screen, dose 10.00 uM, standard z score
[11] = dose 0.08 uM, FC vs plate median
[12] = dose 0.40 uM, FC vs plate median
[13] = dose 2.00 uM, FC vs plate median
[14] = dose 10.00 uM, FC vs plate median
[15] = dose 0.08 uM, FC relative to plate median
[16] = dose 0.40 uM, FC relative to plate median
[17] = dose 2.00 uM, FC relative to plate median
[18] = dose 10.00 uM, FC relative to plate median

Compound | Dose.FC.LYZ.NS ([1]; primary screen, dose 0.08 uM) | Dose.FC.LYZ.NS ([1]; primary screen, dose 0.40 uM) | Dose.FC.LYZ.NS ([1]; primary screen, dose 2.00 uM) | Dose.FC.LYZ.NS ([1]; primary screen, dose 10.00 uM) | Dose.FC.CTG (ENR+CD organoids; dose 0.08 uM) | Dose.FC.CTG (ENR+CD organoids; dose 0.40 uM) | Dose.FC.CTG (ENR+CD organoids; dose 2.00 uM) | Dose.FC.CTG (ENR+CD organoids; dose 10.00 uM) | Dose.FC.LYZ.S ([2]; dose 0.08 uM) | Dose.FC.LYZ.S ([2]; dose 0.40 uM) | Dose.FC.LYZ.S ([2]; dose 2.00 uM) | Dose.FC.LYZ.S ([2]; dose 10.00 uM) | Z.LYZ.NS (standard z score) ([1]; primary screen, dose 0.08 uM) | Z.LYZ.NS (standard z score) ([1]; primary screen, dose 0.40 uM) | Z.LYZ.NS (standard z score) ([1]; primary screen, dose 2.00 uM) | Z.LYZ.NS (standard z score) ([1]; primary screen, dose 10.00 uM) | Z.CTG (standard z score) (ENR+CD organoids; dose 0.08 uM) | Z.CTG (standard z score) (ENR+CD organoids; dose 0.40 uM) | Z.CTG (standard z score) (ENR+CD organoids; dose 2.00 uM) | Z.CTG (standard z score) (ENR+CD organoids; dose 10.00 uM) | further results
Cc1ccc(-c2cc(C(F)(F)F)nn2-c2ccc(S(N)(=O)=O)cc2)cc1 [Celecoxib] | −0.041 log2 fold change | −0.053 log2 fold change | −0.084 log2 fold change | −0.099 log2 fold change | −0.034 log2 fold change | −0.299 log2 fold change | −0.118 log2 fold change | −0.128 log2 fold change | −0.067 log2 fold change | −0.068 log2 fold change | −0.097 log2 fold change | −0.133 log2 fold change |  |  |  |  |  |  |  |  | Z.LYZ.NS [1, 3]: −0.359; Z.LYZ.NS [1, 4]: −0.463; Z.LYZ.NS [1, 5]: −0.734; Z.LYZ.NS [1, 6]: −0.865
VU 0364439 | 0.082 log2 fold change | 0.011 log2 fold change | 0.010 log2 fold change | −0.055 log2 fold change | 0.024 log2 fold change | −0.121 log2 fold change | −0.258 log2 fold change | 0.009 log2 fold change | 0.108 log2 fold change | 0.124 log2 fold change | −0.043 log2 fold change | −0.038 log2 fold change | 0.715 | 0.099 | 0.089 | −0.476 | 0.058 | −0.289 | −0.616 | 0.022 | 
O=C(O[C@H]1C[C@H]2CC[C@@H](C1)[N+]21CCCC1)C(O)(c1ccccc1)c1ccccc1 [Trospium chloride] | 0.169 log2 fold change | 0.218 log2 fold change | −0.002 log2 fold change | 0.102 log2 fold change | 0.083 log2 fold change | −0.031 log2 fold change | 0.200 log2 fold change | 0.148 log2 fold change | 0.119 log2 fold change | 0.117 log2 fold change | −0.008 log2 fold change | 0.084 log2 fold change | 1.470 | 1.895 | −0.017 | 0.885 |  |  |  |  | 
FC(F)(F)c1ccc(/C=C/c2nc(COc3ccc(CCCCn4ccnn4)cc3)co2)cc1 [Mubritinib (TAK 165)] |  |  |  |  |  |  |  |  |  |  |  |  |  |  |  |  |  |  |  |  | Z.LYZ.NS [1, 7]: −0.500; Z.LYZ.NS [1, 8]: −1.687; Z.LYZ.NS [1, 9]: −1.950; Z.LYZ.NS [1, 10]: −2.092; Dose.FC.LYZ.NS ([1]; primary screen; dose 0.08 uM; FC vs plate median): −0.057 log2 fold change; Dose.FC.LYZ.NS ([1]; primary screen; dose 0.40 uM; FC vs plate median): −0.194 log2 fold change; Dose.FC.LYZ.NS ([1]; primary screen; dose 2.00 uM; FC vs plate median): −0.224 log2 fold change; Dose.FC.LYZ.NS ([1]; primary screen; dose 10.00 uM; FC vs plate median): −0.240 log2 fold change; Z.CTG (ENR+CD organoids; dose 0.08 uM): −1.252; Z.CTG (ENR+CD organoids; dose 0.40 uM): −0.812; Z.CTG (ENR+CD organoids; dose 2.00 uM): −1.265; Z.CTG (ENR+CD organoids; dose 10.00 uM): −1.240; Dose.FC.CTG (ENR+CD organoids; [11]): −0.524 log2 fold change; Dose.FC.CTG (ENR+CD organoids; [12]): −0.340 log2 fold change; Dose.FC.CTG (ENR+CD organoids; [13]): −0.530 log2 fold change; Dose.FC.CTG (ENR+CD organoids; [14]): −0.519 log2 fold change; Dose.FC.LYZ.S [2, 11]: −0.119 log2 fold change; Dose.FC.LYZ.S [2, 12]: −0.154 log2 fold change; Dose.FC.LYZ.S [2, 13]: −0.299 log2 fold change; Dose.FC.LYZ.S [2, 14]: −0.294 log2 fold change
C[C@H]1COC2(CCN(c3nc(=O)c4cc(C(F)(F)F)cc([N+](=O)[O-])c4s3)CC2)O1 (racemic) [BTZ043 Racemate] | 0.131 log2 fold change | 0.186 log2 fold change | 0.089 log2 fold change | 0.100 log2 fold change | 0.497 log2 fold change | 0.545 log2 fold change | 0.063 log2 fold change | 0.327 log2 fold change | 0.199 log2 fold change | 0.252 log2 fold change | 0.038 log2 fold change | 0.070 log2 fold change | 1.138 | 1.619 | 0.776 | 0.870 | 1.187 | 1.303 | 0.150 | 0.782 | 
CC(C)(C)c1cc(NC(=O)Nc2ccc(-c3cn4c(n3)sc3cc(OCCN5CCOCC5)ccc34)cc2)no1 [Quizartinib (AC220)] |  |  |  |  |  |  |  |  |  |  |  |  |  |  |  |  |  |  |  |  | Dose.FC.LYZ.NS ([1]; primary screen, dose 0.08 uM, FC relative to plate median): 0.096 log2 fold change; Z.LYZ.NS [1, 7]: 0.836; Dose.FC.LYZ.NS ([1]; primary screen, dose 0.40 uM, FC relative to plate median): 0.039 log2 fold change; Z.LYZ.NS [1, 8]: 0.341; Dose.FC.LYZ.NS ([1]; primary screen, dose 2.00 uM, FC relative to plate median): −0.052 log2 fold change; Z.LYZ.NS [1, 9]: −0.452; Dose.FC.LYZ.NS ([1]; primary screen, dose 10.00 uM, FC relative to plate median): −0.173 log2 fold change; Z.LYZ.NS [1, 10]: −1.505; Dose.FC.CTG (ENR+CD organoids; [15]): 0.351 log2 fold change; Z.CTG (ENR+CD organoids; dose 0.08 uM): 0.838; Dose.FC.CTG (ENR+CD organoids; [16]): 0.149 log2 fold change; Z.CTG (ENR+CD organoids; dose 0.40 uM): 0.355; Dose.FC.CTG (ENR+CD organoids; [17]): −0.352 log2 fold change; Z.CTG (ENR+CD organoids; dose 2.00 uM): −0.841; Dose.FC.CTG (ENR+CD organoids; [18]): −0.644 log2 fold change; Z.CTG (ENR+CD organoids; dose 10.00 uM): −1.539; Dose.FC.LYZ.S [2, 15]: 0.154 log2 fold change; Dose.FC.LYZ.S [2, 16]: 0.083 log2 fold change; Dose.FC.LYZ.S [2, 17]: −0.077 log2 fold change; Dose.FC.LYZ.S [2, 18]: −0.200 log2 fold change
O=C(c1ccc(F)cc1)N1CCC[C@H](c2nc(-c3ccc(F)cc3)no2)C1 [ADX-47273] | 0.269 log2 fold change | 0.053 log2 fold change | −0.033 log2 fold change | −0.036 log2 fold change | 0.115 log2 fold change | −0.034 log2 fold change | −0.210 log2 fold change | −0.039 log2 fold change | 0.147 log2 fold change | 0.147 log2 fold change | −0.039 log2 fold change | −0.070 log2 fold change | 2.346 | 0.457 | −0.286 | −0.311 | 0.274 | −0.082 | −0.501 | −0.094 | 
Oc1ccc2ccccc2c1SSc1c(O)ccc2ccccc12 [IPA-3] |  |  |  |  |  |  |  |  |  |  |  |  | 0.031 | 0.028 | −0.010 | −0.186 | 0.524 | −0.793 | −0.202 | −0.128 | Dose.FC.LYZ.NS (log2 fold change) ([1]; primary screen, dose 0.08 uM): 0.004; Dose.FC.LYZ.NS (log2 fold change) ([1]; primary screen, dose 0.40 uM): 0.003; Dose.FC.LYZ.NS (log2 fold change) ([1]; primary screen, dose 2.00 uM): −0.001; Dose.FC.LYZ.NS (log2 fold change) ([1]; primary screen, dose 10.00 uM): −0.021; Dose.FC.CTG (log2 fold change) (ENR+CD organoids; dose 0.08 uM): 0.219; Dose.FC.CTG (log2 fold change) (ENR+CD organoids; dose 0.40 uM): −0.332; Dose.FC.CTG (log2 fold change) (ENR+CD organoids; dose 2.00 uM): −0.084; Dose.FC.CTG (log2 fold change) (ENR+CD organoids; dose 10.00 uM): −0.054; Dose.FC.LYZ.S (log2 fold change) ([2]; dose 0.08 uM): 0.064; Dose.FC.LYZ.S (log2 fold change) ([2]; dose 0.40 uM): −0.031; Dose.FC.LYZ.S (log2 fold change) ([2]; dose 2.00 uM): 0.067; Dose.FC.LYZ.S (log2 fold change) ([2]; dose 10.00 uM): −0.054
COc1ccc([C@]2(C#N)CC[C@@H](C(=O)O)CC2)cc1OC1CCCC1 [Cilomilast] | 0.114 log2 fold change | −0.037 log2 fold change | −0.010 log2 fold change | −0.043 log2 fold change | −0.334 log2 fold change | −0.338 log2 fold change | −0.235 log2 fold change | −0.192 log2 fold change | 0.115 log2 fold change | −0.109 log2 fold change | −0.083 log2 fold change | −0.045 log2 fold change |  |  |  |  |  |  |  |  | Z.LYZ.NS [1, 3]: 0.995; Z.LYZ.NS [1, 4]: −0.321; Z.LYZ.NS [1, 5]: −0.083; Z.LYZ.NS [1, 6]: −0.376
COc1ccc2cc(-c3nc(-c4ccc([S+](C)[O-])cc4)[nH]c3-c3ccncc3)ccc2c1 (centres unmarked) [Tie2 kinase inhibitor] | 0.009 log2 fold change | 0.002 log2 fold change | 0.181 log2 fold change | −0.031 log2 fold change | 0.005 log2 fold change | 0.074 log2 fold change | −0.314 log2 fold change | −0.549 log2 fold change | 0.018 log2 fold change | −0.021 log2 fold change | 0.024 log2 fold change | −0.097 log2 fold change | 0.080 | 0.019 | 1.577 | −0.274 | 0.012 | 0.177 | −0.750 | −1.311 | 
